Assay results: publication PMC4239038, “The Potent Cdc7-Dbf4 (DDK) Kinase Inhibitor XL413 Has Limited Activity in Many Cancer Cell Lines and Discovery of Potential New DDK Inhibitor Scaffolds” (PLoS ONE, 2014)
pIC50: −log10 of the molar value. Read-outs that look alike come from different tables or passages of the source.

Legend:
[1] = molecular target: T1, purified DDK (Homo sapiens, UniProt O00311); experiment: In vitro (γ)-32P ATP DDK kinase assay (DDK auto-phosphorylation); assay type: biochemical; settings: increasing inhibitor concentrations
T1 construct: His6-Smt3 (SUMO) (N, cleaved yes); made in house; host or cells: E. coli BL21-RIPL (pKT37, pETDuet-1 vector)

[2] = system: Eight tumor cell lines; experiment: Cell viability at 5 µM inhibitor, cell line panel; assay type: cell-based; settings: 72 hrs, relative to vehicle controls
[3] = system: Mcm2 phosphorylation in Colo-205 cells; experiment: Immunoblot of DDK-dependent Mcm2 phosphorylation; assay type: cell-based; settings: Colo-205, 5 µM, 24 hours
[4] = system: Colo-205 cells; experiment: Cell viability, CellTiter-Glo; assay type: cell-based; settings: Homo sapiens, COLO 205, 72 h
[5] = system: HCC1954 cells; experiment: Caspase 3/7 activity (apoptosis); assay type: cell-based; settings: HCC1954, 24 hours
Experimental: Caspase 3/7 activity and viable cell number were then measured using the Caspase-Glo 3/7 assay (Promega) and CellTiter-Glo assay (Promega), respectively.

[6] = system: Colo-205 cells; settings: Colo-205, 24 hours
[7] = system: HCT116 (p53-/-) cells; experiment: Cell viability, CellTiter-Glo; assay type: cell-based; settings: Homo sapiens, HCT-116, 72 hrs post drug addition
[8] = system: Mcm2 Serine 53 phosphorylation in HCC1954 cells; experiment: Immunoblot of DDK-dependent Mcm2 phosphorylation; assay type: cell-based; settings: HCC1954, 5 µM
Experimental: Whole cell extracts were prepared by re-suspending the pellets in RIPA buffer (150 mM NaCl, 1% NP-40, 0.5% sodium deoxycholate, 0.1% SDS, 50 mM Tris HCl, pH 8) containing protease inhibitors (100 µM PMSF, 1 mM Benzamide, 2.5 µg/ml Pepstatin A, 10 µg/ml Leupeptin, and 10 µg/ml Aprotinin) and phosphatase inhibitors (1 mM each NaF, Na3VO4 and Na4P2O7). Protein concentration was measured using the BCA protein assay kit (Pierce) according to manufacturer's protocol. Equal amounts of protein were subjected to SDS-PAGE and transferred to a nitrocellulose membrane (Millipore). Transfer efficiency and equal loading was confirmed by Ponceau S staining. Following primary and secondary antibody treatments, proteins were visualized using SuperSignal West Pico solutions (Thermo Scientific). Anti-Mcm2 and anti-S53-phospho-Mcm2 antibodies were purchased from Bethyl Laboratories; anti-β-actin was from Sigma; anti-mouse and anti-rabbit HRP antibodies were from GE Healthcare; and anti-Cdc7 and anti-Dbf4 antibodies were described previously.
Effective cellular uptake of the DDK inhibitor should compromise DDK activity in vivo. Among the many targets of DDK are components of the replicative Mcm2–7 helicase. Serine 53 of Mcm2 subunit is a well-characterized target site for DDK mediated phosphorylation. We quantitated levels of phosphorylation on this site as a measure of DDK activity in vivo. […] Cells were then harvested at 0, 24, 48, and 72 hours post drug addition to measure viable cells and Mcm2 phosphorylation by immunoblotting.

[9] = system: panel of 100 kinases; set-up: method as in PMID 22560567; settings: panel of 100 kinases ref 49; cited from earlier work
[10] = system: DDK; settings: purified DDK ref 49; read-out: DDK IC50 (in vitro); cited from earlier work
[11] = system: HCC1954 cells; experiment: Cell viability, CellTiter-Glo; assay type: cell-based; settings: Homo sapiens, HCC1954, 72 h
[12] = system: HCT116 (p53+/+) cells; experiment: Cell viability, CellTiter-Glo; assay type: cell-based
[13] = system: Colo-205 cells; set-up: method as in PMID 22560567; settings: Colo-205 ref 49; read-out: Cellular Proliferation IC50; cited from earlier work

T1 sequence (O00311 whole entry): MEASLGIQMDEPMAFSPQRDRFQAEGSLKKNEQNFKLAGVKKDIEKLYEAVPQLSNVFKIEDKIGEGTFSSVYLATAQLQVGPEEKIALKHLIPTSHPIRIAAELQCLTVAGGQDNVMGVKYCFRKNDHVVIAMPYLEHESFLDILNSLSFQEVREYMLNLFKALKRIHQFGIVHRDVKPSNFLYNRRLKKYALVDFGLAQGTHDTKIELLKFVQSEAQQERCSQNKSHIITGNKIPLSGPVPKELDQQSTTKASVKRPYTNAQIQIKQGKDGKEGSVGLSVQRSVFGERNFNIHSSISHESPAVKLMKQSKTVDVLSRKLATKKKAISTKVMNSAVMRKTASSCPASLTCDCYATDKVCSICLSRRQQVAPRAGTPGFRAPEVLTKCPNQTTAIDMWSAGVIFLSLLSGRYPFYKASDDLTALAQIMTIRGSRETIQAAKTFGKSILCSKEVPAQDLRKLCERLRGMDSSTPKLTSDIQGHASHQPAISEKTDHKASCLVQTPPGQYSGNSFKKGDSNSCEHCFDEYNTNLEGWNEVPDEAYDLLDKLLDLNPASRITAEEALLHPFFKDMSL
T1 sequence (Q9UBU7 341-674 partner limits assumed): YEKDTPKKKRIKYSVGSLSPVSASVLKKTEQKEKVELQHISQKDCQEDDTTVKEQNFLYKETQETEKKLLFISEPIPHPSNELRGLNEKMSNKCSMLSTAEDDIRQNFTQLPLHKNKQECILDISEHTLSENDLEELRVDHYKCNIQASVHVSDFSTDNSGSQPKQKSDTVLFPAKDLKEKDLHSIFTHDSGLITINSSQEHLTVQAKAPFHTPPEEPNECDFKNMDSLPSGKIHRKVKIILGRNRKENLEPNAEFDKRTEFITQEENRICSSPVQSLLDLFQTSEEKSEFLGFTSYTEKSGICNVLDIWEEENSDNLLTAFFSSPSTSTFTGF

O=c1[nH]c([C@@H]2CCCN2)nc2c1oc1ccc(Cl)cc12 [XL413, (S)-8-chloro-2-(pyrrolidin-2-yl)benzofuro[3,2-d]pyrimidin-4(3H)-one]
pIC50 [1]: 7.64
Anti-proliferative activity [2]: anti-proliferative only in the Colo-205 cells
Mcm2 phosphorylation [3]: completely abolished Mcm2 phosphorylation
pIC50 ([4]; Colo-205, 72 hrs post drug addition): 5.96
pIC50 ([4]; Colo-205, 72 hrs, XL413 from commercial supplier MedKoo): 6.22
Apoptosis induction (Caspase 3/7 activity) [5]: induced apoptosis only in the Colo-205 cells
Apoptosis induction (Caspase 3/7 activity) [6]: induced apoptosis only in the Colo-205 cells
pIC50 [7]: 4.44
Mcm2 phosphorylation ([8]; 24 hrs): did not inhibit Mcm2 phosphorylation
Mcm2 phosphorylation ([8]; 72 hours): only a modest decrease in Mcm2 phosphorylation
Selectivity for DDK [9]: highly selective for DDK
pIC50 [10]: 8.47
pIC50 ([11]; HCC1954, 72 hrs post drug addition): 4.64
pIC50 ([11]; XL413 from commercial supplier MedKoo): 4.65
pIC50 ([12]; Homo sapiens, HCT-116, HCT116 (p53+/+), 72 hrs post drug addition): 4.54
IC50 higher than PHA-767491 ([12]; two additional colorectal tumor cell lines (HCT116 p53+/+ and p53-/-)): 40- to 60 fold
pIC50 [13]: 5.57
